“Also recorded” adds a separate entry of the source.

Common to all, as to format: in vivo
The subject of data set [1] is human subjects diagnosed with acute bronchiolitis. Kind of data set: Example 3: randomized bronchiolitis study, infants 2-12 months; 160 ppm NO 30 min 5x daily up to 5 days plus O2 vs O2 alone; safety and tolerability. The text has this: Eligible subjects were randomized (1:1) to receive intermittent NO and standard treatment with O2 (hereafter referred to as NO treatment) or standard treatment with O2 (hereafter referred to as standard treatment) alone for a treatment period of up to 5 days. During treatment, MetHb and O2 saturation levels were continuously monitored using a dedicated monitor.
In addition to standard supportive O2 treatment which was initiated prior to randomization, subjects in the NO group were given five 30 minute inhalations per day of 160 ppm NO, at intervals of 3 to 4 hours, until subject improvement led to a physician decision of fit to discharge, to a maximum of 25 inhalations over 5 consecutive days. Inhalations were administered via hospital face masks (Hospiltak, Unomedical Inc).
All subjects in the control group were managed with standard supportive O2 treatment in the same way as the active treatment group, but without actual NO administration.
Methemoglobin and O2 saturation levels were also continuously monitored using a dedicated monitor. In the event of MetHb>5% or O2 saturation less than 89%, treatment was temporarily discontinued, and measurement repeated 30 minutes later. If value(s) had returned to within the safety threshold, the next inhalation was started according to protocol. In any case of a second episode of MeHb greater than 5%, study treatment was to be permanently discontinued.
Primary Endpoints—Safety and Tolerability: • Safety: • Determine the MetHb percentage associated with inhaled NO • Determine AEs associated with inhaled NO • Tolerability: • Proportion of subjects (%) who prematurely discontinued the study or study treatment for any reason • Proportion of subjects (%) who prematurely discontinued the study treatment due to AEs

A further data set has as its system A. fumigatus. Kind of data set: Example 1: microbial density in sputum (CFU) during NO inhalation. The conditions noted are these: Patient 3 (CFSCH03). The method, then:
(§1) NO was administered via inhalation to nine clinically stable human subjects diagnosed with, or suffering from CF from two medical centers. Patients received three daily 30-minute treatments of 160 ppm NO with at least 3.5 hours between treatments, for 5 days per week over a two-weeks time period.
(§2) Preliminary efficacy measures included determination of microbial density in sputum and measurements of forced exhaled volume at 1 second (FEV1). Inflammation associated with C-reactive protein (CRP) levels was assessed as a secondary outcome measure. Other inflammation biomarkers, such as interleukins, were also monitored (data not shown).
(§3) Bacterial load was measured for exemplary, non-limiting selection of species that included, P. alcaligenes, methicillin-sensitive Staphylococcus aureus (MSSA), Achromobacter spp., A. fumigates, non-mucoid P. aeruginosa and mucoid P. aeruginosa.

The subject of a further data set is P. alcaligenes. The data set is described as above. Particulars: Patient 1 (CFSCH01), by Day 9. Here is the method: as §1, §2, §3
A further data set relates to Achromobacter spp. The data set is described as above. Particulars: Patient 3 (CFSCH03). The method, then: as §1, §2, §3
In the next data set the test system is mucoid P. aeruginosa. The description is as above. The conditions noted are these: Patient 4 (CFSCH04). The method, then:
as §1, §2, §3

A further data set concerns nonmucoid P. aeruginosa. The description is as above. Particulars: Patient 4 (CFSCH04). Here is the method: as §1, §2, §3

Turning to `[N]=O` [NO, nitric oxide], the “Time for MetHb to approach pre-treatment levels” value in data set [1] (after end of 30 min treatment) was “approximately 3 hours”. In data set [1] (all randomized), the “Completed entire treatment and study duration, % of subjects” value worked out at 90.5%; the “Early discontinuation of study” value is given as “(0.0%)”; the “Early discontinuation of study, withdrawal of consent” value is “(0.0%)”; the “Early discontinuation of treatment due to AE” value was “(4.8%)^(1)”. In data set [1] (all randomized), the “Early discontinuation of treatment due to SAE” value is “(0.0%)”; the “Early discontinuation of treatment only” value is listed as “(9.5%)”; the “Early discontinuation of treatment, Physician/Investigator decision” value was “(4.8%)^(3)”; the “Subjects that discontinued study treatment or discontinued the study” value is “(9.5%)”. The “Completed entire treatment and study duration, % of subjects” value in data set [1] (all randomized, listed as NO and Standard Treatment (O2)) is “(90.5%)”. For the same compound, in data set [1] (during the study treatment period), the “Subjects with any MetHb measurement greater than 5%” value stood at 28.6%. In data set [1] (human, in vivo, 160 ppm), the “Serious adverse events reported by” value is 4 subjects and the “Subjects reporting at least 1 AE” value came out at 47.6%. Also, the “Deaths during the study” value in data set [1] (in vivo) is “no deaths”. The “maximum MetHb” value in data set [1] (one subject (Subject 44)) is 5.6%. Moreover, the “Cumulative effect on MetHb levels” value in data set [1] (over the study treatment period) was “no “cumulative” effect; also recorded: no cumulative effect”. In the data set with A. fumigatus, the “A. fumigatus CFU counts” value is reported as “elimination”. Further, in the data set with P. alcaligenes, the “decrease in P. alcaligenes CFUs” value was 2 log. The “decrease in Achromobacter spp. CFU” value in the data set on Achromobacter spp. came to 1 log. The “decrease in mucoid P. aeruginosa counts” value in the data set on mucoid P. aeruginosa is 2 log. Besides, the “decrease in nonmucoid P. aeruginosa counts” value in the data set on nonmucoid P. aeruginosa is given as 1 log.

For the origin of these results see patent publication US20170239289A1, “TREATMENT OF INFLAMMATION, RESPIRATORY TRACT INFECTIONS AND CYSTIC FIBROSIS” (Advanced Inhalation Therapies (AIT) Ltd., priority 2014, published 2017).
